{"source": "paper PMC9025810", "about": "“Interaction of Antifungal Drugs with CYP3A- and OATP1B-Mediated Venetoclax Elimination” (Pharmaceutics, 2022)", "key": {"[1]": {"conditions": "cited from earlier work"}, "human CYP3A4": {"target": "T1, human CYP3A4 (Homo sapiens, UniProt P08684)", "T1 construct": "purchased Corning 456207", "T1 sequence (P08684 whole entry)": "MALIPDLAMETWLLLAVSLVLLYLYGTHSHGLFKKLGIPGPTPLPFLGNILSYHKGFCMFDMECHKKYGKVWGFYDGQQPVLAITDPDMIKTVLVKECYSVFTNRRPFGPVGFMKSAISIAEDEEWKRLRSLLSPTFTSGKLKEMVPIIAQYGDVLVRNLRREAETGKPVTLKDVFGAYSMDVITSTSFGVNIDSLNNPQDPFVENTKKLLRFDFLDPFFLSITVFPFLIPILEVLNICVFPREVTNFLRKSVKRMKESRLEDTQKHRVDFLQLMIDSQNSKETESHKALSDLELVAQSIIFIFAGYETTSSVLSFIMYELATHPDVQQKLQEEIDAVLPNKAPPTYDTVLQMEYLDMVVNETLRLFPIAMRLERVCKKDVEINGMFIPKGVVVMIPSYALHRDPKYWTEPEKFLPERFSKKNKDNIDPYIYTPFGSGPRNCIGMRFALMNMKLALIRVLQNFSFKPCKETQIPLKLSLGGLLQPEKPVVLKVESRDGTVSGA", "test": "Venetoclax metabolism by human recombinant CYP3A4 supersomes", "assay_type": "in vitro ADME", "conditions": "10 µM venetoclax, 40 nM CYP3A4 supersomes, 2 h", "description": "The ability of human CYP3A4 to metabolize venetoclax was assessed using human CYP3A4 supersomes using standard procedures. Reactions were performed in a volume of 100 µL. […] The mixture was preincubated for 5 min at 37 °C before initiating the reaction by the addition of the NADPH regenerating system and incubating at 37 °C with continuous shaking (400 rpm). At 0 h and 2 h, a 20 µL aliquot was mixed with 20 µL methanol to terminate the reaction. The mixture was then vortexed and stored at −80 °C until analysis. Venetoclax was quantified using a validated UHPLC-MS/MS analytical method."}, "OATP1B1 [2]": {"target": "T2, OATP1B1 (Homo sapiens, UniProt Q9Y6L6)", "T2 sequence (Q9Y6L6 1-691)": "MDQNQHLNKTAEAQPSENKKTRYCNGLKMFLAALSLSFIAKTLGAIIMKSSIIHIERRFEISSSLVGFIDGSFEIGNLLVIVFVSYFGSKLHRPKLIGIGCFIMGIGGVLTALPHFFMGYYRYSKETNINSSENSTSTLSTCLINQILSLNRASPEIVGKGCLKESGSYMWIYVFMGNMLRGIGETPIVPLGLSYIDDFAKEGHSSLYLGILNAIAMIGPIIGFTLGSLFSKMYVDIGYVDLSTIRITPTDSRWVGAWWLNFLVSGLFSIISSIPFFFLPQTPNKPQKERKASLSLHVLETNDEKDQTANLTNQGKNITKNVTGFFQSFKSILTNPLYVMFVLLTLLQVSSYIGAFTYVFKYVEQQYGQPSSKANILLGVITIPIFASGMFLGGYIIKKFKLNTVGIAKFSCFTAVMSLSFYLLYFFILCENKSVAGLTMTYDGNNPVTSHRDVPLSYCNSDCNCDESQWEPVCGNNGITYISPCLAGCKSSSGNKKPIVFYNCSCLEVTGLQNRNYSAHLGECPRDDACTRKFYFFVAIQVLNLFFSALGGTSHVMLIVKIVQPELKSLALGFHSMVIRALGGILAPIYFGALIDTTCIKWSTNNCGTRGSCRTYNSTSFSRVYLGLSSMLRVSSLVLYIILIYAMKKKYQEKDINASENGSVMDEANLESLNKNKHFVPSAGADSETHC", "test": "Competitive counterflow assay with 8-acetoxy-trisulfopyrene", "assay_type": "cell-based", "parameters": "expressed in transfected cells", "description": "Competitive counterflow assays were performed with 8-acetoxy-trisulfopyrene, an activatable fluorogenic probe for OATP1B1, as described previously. In brief, cells expressing a vector or OATP1B1 were seeded in 96-well opaque plates in phenol-red free DMEM media with 10% FBS and induced with doxycycline for 24 h. On the day of the experiment, the media was removed, and the cells were washed three times with warm PBS. The cells were then incubated for 20 min at 37 °C with 100 µL of 5 µM 8-acetoxypyrene-1,3,6-trisulfonate uptake buffer (ACE; 125 mM NaCl, 4.8 mM KCl, 1.2 mM CaCl2, 1.2 mM KH2PO4, […], 25 mM 2-N-morpholino), ethanesulfonic acid, and 5.6 mM glucose, with the pH adjusted to 5.5). […] The fluorescence was measured at excitation and emission wavelengths of 460 nm and 510 nm, respectively, after 20 min of incubation to control for the number of cells.\nThe plates were incubated for 20 min at 37 °C. In the final step, the supernatant was removed, and the cells were washed three times with 200 µL ice-cold PBS to stop the reaction. PBS was then removed and 200 µL of 0.1 N NaOH was added to each well to normalize the pH. The fluorescence was measured as described above after another 20 min incubation at room temperature. The levels of cell dye were reported as a percent of the measurement from cells containing ACE alone."}, "[3]": {"conditions": "cited from earlier work", "remark": "listed apart in the source"}, "OATP1B1 [4]": {"target": "T2, OATP1B1", "test": "Radioactive uptake and membrane/intracellular fractionation in cells overexpressing OATP1B1 or vector", "assay_type": "cell-based", "parameters": "expressed in transfected cells", "description": "For experiments seeking to directly determine if venetoclax is an OATP1B1 substrate, cells overexpressing OATP1B1 or VC were seeded in six-well plates in phenol red-free DMEM containing 10% FBS and doxycycline (1 µg/mL) for 24 h. […] Cells were then immediately lysed with 1 mL of 1 N NaOH for 4 h on an orbital shaker at room temperature to measure total radioactivity. Alternatively, cells were trypsinized with 200 µL of TrypLE (Thermo Fisher Scientific, Waltham, MA, USA) for 3–5 min, rinsed with 800 µL of ice-cold washing buffer, and ProteoExtract Native Membrane Protein Extraction Kits (EMD Millipore, Burlington, MA, USA) were used to separate membrane and intracellular fractions. Dissociated cells were then transferred to 1.5-mL Eppendorf tubes. For measurement of total radioactivity, cells were neutralized with 500 µL of 2 M HCl after 4 h. For measurement of total radioactivity in the membrane or intracellular fraction, cells were isolated following the manufacturer’s protocol, as we have reported previously; this procedure is based on a differential extraction procedure under non-denaturing conditions."}, "[5]": {"conditions": "plasma; cited from earlier work"}}, "note": "Read-outs that look alike come from different tables or passages of the source."}
{"smiles": "CC1(C)CCC(CN2CCN(c3ccc(C(=O)NS(=O)(=O)c4ccc(NCC5CCOCC5)c([N+](=O)[O-])c4)c(Oc4cnc5[nH]ccc5c4)c3)CC2)=C(c2ccc(Cl)cc2)C1", "note": "[Venetoclax]", "values": [{"measurement": "Reduction of clearance in vivo", "setting": "[1]; mice with a deficiency of all OATP1A and OATP1B type transporters", "result": 60, "unit": "%"}, {"measurement": "DDI between venetoclax and ketoconazole (increase in venetoclax exposure)", "setting": "[1]; mice", "result": "~ 3 fold"}, {"measurement": "Amount of venetoclax in the reaction in the presence of ketoconazole", "setting": "human CYP3A4; 10 µM ketoconazole", "result": "nearly unchanged"}, {"measurement": "Reduction of the amount of venetoclax in the reaction", "setting": "human CYP3A4; vehicle (DMSO)", "result": 40, "unit": "%"}, {"measurement": "Effect on fluorescence (cell dye level) in competitive counterflow", "setting": "OATP1B1 [2]; 5 µM ACE, venetoclax 200 µM, cyclosporin A 10 µM, paraformaldehyde 0.5%, 20 min", "result": "significantly decreased fluorescence"}, {"measurement": "Actual unbound concentration of venetoclax in counterflow experiments", "setting": "OATP1B1 [2]; nominal concentration 200 µM", "result": "< 10", "unit": "µM"}, {"measurement": "Variation in apparent oral clearance", "setting": "[3]; at approved doses, patients", "result": "~15", "unit": "fold"}, {"measurement": "DDI between venetoclax and ketoconazole (increase in venetoclax exposure)", "setting": "[3]; humans", "result": "~ 6 fold"}, {"measurement": "Increase in systemic exposure to venetoclax with a single dose of rifampin", "setting": "[3]; humans", "result": 2, "unit": "fold"}, {"measurement": "Uptake in the intracellular fraction with overexpression of OATP1B1 versus vector", "setting": "OATP1B1 [4]; 0.2 µM EβG or 1 µM venetoclax, 15 min", "result": "significant increases"}, {"measurement": "Detectable compound associated with the membrane fraction", "setting": "OATP1B1 [4]; after correction for the intracellular fraction", "result": "> 96", "unit": "%"}, {"measurement": "Venetoclax remaining unbound (membrane-binding experiment)", "setting": "OATP1B1 [4]; in vitro, cells", "result": "< 3", "unit": "%"}, {"measurement": "Radioactivity in the membrane fraction relative to the probe substrate EβG", "setting": "OATP1B1 [4]; membrane fraction, 1 µM venetoclax vs 0.2 µM EβG", "result": "> 500", "unit": "fold"}, {"measurement": "Detected total radioactivity relative to the probe substrate EβG", "setting": "OATP1B1 [4]; whole cell lysate, cells expressing OATP1B1 or vector, 15 min", "result": "> 10", "unit": "fold"}, {"measurement": "Protein-bound in plasma", "setting": "[5]", "result": "> 99", "unit": "%"}]}
